Results published in patent US20260263429A1, “INHIBITORS OF CA 2+/CALMODULIN-DEPENDENT PROTEIN KINASE II (CAMKII) THAT DO NOT INHIBIT LONG-TERM POTENTIATION (LTP) INDUCTION AND THERAPEUTIC USES THEREOF” (The Regents of the University of Colorado, A Body Corporate, priority 2023, published 2026).

Tests used:
PDGFRβ(h) = PDGFRβ(h) (Homo sapiens, UniProt P09619); experiment: Kinase panel, residual kinase activity at 1 μM inhibitor; type: biochemical
Description: (§1) In this table, residual kinase activity in the presence of 1 μM of each inhibitor is illustrated as a percentage of maximal activity.

CDK2/cyclinE(h) = CDK2/cyclinE(h) (Homo sapiens, UniProt P24941); experiment: as above; type: biochemical
Description: as §1

GSK3α(h) = GSK3α(h) (Homo sapiens, UniProt P49840); experiment: as above; type: biochemical
Description: as §1

FAK(h) = FAK(h) (Homo sapiens, UniProt Q05397); experiment: as above; type: biochemical
Description: as §1

JAK3(h) = JAK3(h) (Homo sapiens, UniProt P52333); experiment: as above; type: biochemical
Sequence of JAK3(h) (P52333 whole entry): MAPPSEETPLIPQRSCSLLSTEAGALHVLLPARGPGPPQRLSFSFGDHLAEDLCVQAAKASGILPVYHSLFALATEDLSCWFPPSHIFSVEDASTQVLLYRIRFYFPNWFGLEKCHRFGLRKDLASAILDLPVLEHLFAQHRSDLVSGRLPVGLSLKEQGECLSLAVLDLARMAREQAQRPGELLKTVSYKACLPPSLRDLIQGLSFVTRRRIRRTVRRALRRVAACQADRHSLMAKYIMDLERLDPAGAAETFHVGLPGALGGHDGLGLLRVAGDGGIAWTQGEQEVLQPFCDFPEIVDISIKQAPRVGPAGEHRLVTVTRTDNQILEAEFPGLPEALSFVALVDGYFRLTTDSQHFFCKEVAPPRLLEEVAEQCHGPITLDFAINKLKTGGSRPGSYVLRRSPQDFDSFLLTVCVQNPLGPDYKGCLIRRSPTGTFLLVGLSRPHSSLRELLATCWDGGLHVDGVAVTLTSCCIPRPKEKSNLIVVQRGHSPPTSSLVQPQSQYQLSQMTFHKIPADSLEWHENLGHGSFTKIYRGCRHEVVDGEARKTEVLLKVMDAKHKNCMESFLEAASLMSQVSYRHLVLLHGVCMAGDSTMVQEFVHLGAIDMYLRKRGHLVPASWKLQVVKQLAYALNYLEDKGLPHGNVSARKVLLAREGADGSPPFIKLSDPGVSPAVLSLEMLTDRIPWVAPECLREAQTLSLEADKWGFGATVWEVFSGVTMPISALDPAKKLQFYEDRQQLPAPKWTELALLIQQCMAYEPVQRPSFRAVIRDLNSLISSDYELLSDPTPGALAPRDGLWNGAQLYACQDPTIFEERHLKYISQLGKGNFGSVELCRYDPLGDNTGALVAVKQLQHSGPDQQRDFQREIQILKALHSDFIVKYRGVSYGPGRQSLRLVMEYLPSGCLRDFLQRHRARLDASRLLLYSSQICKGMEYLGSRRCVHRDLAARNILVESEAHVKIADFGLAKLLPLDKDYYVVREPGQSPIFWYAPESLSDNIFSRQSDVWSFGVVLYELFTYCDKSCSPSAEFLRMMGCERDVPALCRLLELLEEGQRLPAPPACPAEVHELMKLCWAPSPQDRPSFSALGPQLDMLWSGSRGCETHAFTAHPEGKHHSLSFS
Description: as §1

PKBγ(h) = PKBγ(h) (Homo sapiens, UniProt Q9Y243); experiment: as above; type: biochemical
Sequence of PKBγ(h) (Q9Y243 whole entry): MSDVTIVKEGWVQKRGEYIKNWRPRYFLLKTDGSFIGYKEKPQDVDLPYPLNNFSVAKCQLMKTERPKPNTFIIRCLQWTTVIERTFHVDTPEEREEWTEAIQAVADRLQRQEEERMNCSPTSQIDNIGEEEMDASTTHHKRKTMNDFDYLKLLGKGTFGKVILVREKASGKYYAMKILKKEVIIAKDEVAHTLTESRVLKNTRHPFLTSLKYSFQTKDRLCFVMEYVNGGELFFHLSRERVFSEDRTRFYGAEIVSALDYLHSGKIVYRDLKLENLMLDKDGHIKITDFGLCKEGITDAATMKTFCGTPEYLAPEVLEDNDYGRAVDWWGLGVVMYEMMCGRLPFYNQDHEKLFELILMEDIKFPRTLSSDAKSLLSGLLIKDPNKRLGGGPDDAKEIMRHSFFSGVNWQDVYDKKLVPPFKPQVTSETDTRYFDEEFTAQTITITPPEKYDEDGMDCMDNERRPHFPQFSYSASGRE
Description: as §1

GSK3β(h) = GSK3β(h) (Homo sapiens, UniProt P49841); experiment: as above; type: biochemical
Description: as §1

ROCK-II(h) = ROCK-II(h) (Homo sapiens, UniProt O75116); experiment: as above; type: biochemical
Description: as §1

JNK2α2(h) = JNK2α2(h) (Homo sapiens, UniProt P45984); experiment: as above; type: biochemical
Description: as §1

AMPKα1(h) = AMPKα1(h) (Homo sapiens, UniProt Q13131); experiment: as above; type: biochemical
Description: as §1

CaMKI(h) = CaMKI(h) (Homo sapiens, UniProt Q14012); experiment: as above; type: biochemical
Sequence of CaMKI(h) (Q14012 whole entry): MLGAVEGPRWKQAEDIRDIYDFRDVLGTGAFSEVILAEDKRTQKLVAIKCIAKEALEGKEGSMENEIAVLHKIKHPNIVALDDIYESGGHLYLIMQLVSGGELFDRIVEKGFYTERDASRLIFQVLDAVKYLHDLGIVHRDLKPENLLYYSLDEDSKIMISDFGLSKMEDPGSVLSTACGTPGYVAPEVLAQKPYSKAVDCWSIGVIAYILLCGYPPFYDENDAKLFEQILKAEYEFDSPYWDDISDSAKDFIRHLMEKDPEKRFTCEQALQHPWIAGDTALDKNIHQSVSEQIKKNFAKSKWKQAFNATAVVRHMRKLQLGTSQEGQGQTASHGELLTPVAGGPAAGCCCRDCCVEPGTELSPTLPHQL
Description: as §1

mTOR(h) = mTOR(h) (Homo sapiens, UniProt P42345); experiment: as above; type: biochemical
Description: as §1

cKit(h) = cKit(h) (Homo sapiens, UniProt P10721); experiment: as above; type: biochemical
Description: as §1

FGFR1(h) = FGFR1(h) (Homo sapiens, UniProt P11362); experiment: as above; type: biochemical
Sequence of FGFR1(h) (P11362 22-822): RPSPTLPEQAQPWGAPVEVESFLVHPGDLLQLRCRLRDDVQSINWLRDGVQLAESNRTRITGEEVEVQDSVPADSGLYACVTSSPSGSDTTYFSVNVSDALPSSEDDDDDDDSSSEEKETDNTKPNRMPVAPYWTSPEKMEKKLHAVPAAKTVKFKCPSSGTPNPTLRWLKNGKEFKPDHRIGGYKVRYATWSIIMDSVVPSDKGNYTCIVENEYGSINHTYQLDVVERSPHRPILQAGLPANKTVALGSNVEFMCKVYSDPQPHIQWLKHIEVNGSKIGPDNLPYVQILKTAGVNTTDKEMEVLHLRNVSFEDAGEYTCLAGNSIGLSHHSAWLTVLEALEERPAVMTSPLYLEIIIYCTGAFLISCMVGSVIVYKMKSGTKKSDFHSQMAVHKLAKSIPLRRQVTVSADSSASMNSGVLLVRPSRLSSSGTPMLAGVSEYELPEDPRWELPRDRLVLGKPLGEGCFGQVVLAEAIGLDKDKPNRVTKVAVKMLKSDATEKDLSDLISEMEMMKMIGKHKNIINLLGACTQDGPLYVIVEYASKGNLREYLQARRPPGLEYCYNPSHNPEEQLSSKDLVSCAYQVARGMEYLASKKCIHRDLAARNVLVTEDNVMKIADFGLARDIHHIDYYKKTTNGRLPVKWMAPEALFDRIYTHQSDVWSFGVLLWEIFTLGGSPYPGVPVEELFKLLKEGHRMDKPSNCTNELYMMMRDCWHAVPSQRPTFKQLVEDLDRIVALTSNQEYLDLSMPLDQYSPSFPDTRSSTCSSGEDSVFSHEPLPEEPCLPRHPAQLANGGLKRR
Description: as §1

CaMKIIγ(h) = CaMKIIγ(h) (Homo sapiens, UniProt Q13555); experiment: as above; type: biochemical
Description: as §1

Arg(h) = Arg(h) (Homo sapiens, UniProt P42684); experiment: as above; type: biochemical
Sequence of Arg(h) (P42684 whole entry): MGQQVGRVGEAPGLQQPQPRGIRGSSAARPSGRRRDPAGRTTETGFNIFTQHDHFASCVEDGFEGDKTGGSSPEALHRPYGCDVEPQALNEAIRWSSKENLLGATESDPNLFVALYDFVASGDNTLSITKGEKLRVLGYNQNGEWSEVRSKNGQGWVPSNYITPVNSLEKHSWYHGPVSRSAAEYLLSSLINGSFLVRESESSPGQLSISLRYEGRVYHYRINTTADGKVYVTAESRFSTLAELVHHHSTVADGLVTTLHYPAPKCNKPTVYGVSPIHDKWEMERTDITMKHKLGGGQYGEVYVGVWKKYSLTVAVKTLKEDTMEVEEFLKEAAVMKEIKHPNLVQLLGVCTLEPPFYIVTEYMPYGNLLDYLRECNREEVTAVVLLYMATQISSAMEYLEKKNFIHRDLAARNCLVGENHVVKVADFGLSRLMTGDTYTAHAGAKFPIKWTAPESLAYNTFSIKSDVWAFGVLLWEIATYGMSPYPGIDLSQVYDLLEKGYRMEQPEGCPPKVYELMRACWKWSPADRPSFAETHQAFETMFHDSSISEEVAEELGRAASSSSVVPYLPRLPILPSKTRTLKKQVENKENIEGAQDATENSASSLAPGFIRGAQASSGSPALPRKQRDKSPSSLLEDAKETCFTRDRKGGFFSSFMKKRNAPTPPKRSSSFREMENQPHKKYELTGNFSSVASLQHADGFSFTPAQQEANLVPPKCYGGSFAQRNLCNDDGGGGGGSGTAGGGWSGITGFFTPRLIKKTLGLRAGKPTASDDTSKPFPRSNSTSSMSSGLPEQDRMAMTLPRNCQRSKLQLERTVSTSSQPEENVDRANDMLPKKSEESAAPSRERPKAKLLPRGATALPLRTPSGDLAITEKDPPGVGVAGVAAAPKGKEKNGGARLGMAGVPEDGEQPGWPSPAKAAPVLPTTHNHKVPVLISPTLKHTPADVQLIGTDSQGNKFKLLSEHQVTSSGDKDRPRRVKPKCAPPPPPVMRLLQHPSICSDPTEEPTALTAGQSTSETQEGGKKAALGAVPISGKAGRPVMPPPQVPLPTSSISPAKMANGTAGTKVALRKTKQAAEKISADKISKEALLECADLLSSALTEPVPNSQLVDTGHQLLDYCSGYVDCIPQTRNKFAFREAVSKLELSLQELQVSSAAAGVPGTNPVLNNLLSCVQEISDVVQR
Description: as §1

PKCδ(h) = PKCδ(h) (Homo sapiens, UniProt Q05655); experiment: as above; type: biochemical
Description: as §1

PKG1α(h) = PKG1α(h) (Homo sapiens, UniProt Q13976); experiment: as above; type: biochemical
Description: as §1

KDR(h) = KDR(h) (Homo sapiens, UniProt P35968); experiment: as above; type: biochemical
Description: as §1

PKG1β(h) = PKG1β(h) (Homo sapiens, UniProt Q13976); experiment: as above; type: biochemical
Description: as §1

PDK1(h) = PDK1(h) (Homo sapiens, UniProt O15530); experiment: as above; type: biochemical
Description: as §1

SGK(h) = SGK(h) (Homo sapiens, UniProt O00141); experiment: as above; type: biochemical
Description: as §1

CDK5/p35(h) = CDK5/p35(h) (Homo sapiens, UniProt Q00535); experiment: as above; type: biochemical
Description: as §1

JAK2(h) = JAK2(h) (Homo sapiens, UniProt O60674); experiment: as above; type: biochemical
Description: as §1

MEK1(h) = MEK1(h) (Homo sapiens, UniProt Q02750); experiment: as above; type: biochemical
Description: as §1

CaMKIIδ(h) = CaMKIIδ(h) (Homo sapiens, UniProt Q13557); experiment: as above; type: biochemical
Description: as §1

[1] = tested on: paCaMKII F89G movement to synapses and spine growth; experiment: Photoactivation of paCaMKII F89G in hippocampal neurons (structural LTP); type: cell-based; conditions: NM-PP1 10 μM
Description: In this Example, two sets of pharmacogenetic tools were used in combination with the photoactivable paCaMKII to test whether structural CaMKII functions are not only the necessary but also the sufficient CaMKII functions in LTP. Specifically, in one exemplary method, hippocampal neurons were examined for sLTP (e.g., the LTP-associated growth of dendritic spines) in response to direct photoactivation of paCaMKII without any other stimulation that could trigger additional signaling pathways. […] In both cases, suppressing enzymatic CaMKII activity while allowing or enhancing GluN2B binding enabled induction of structural LTP.
paCaMKII stimulation in hippocampal neurons. […] Neurons were then imaged 15 minutes after stimulation and assessed for CaMKII synaptic enrichment and dendritic spine growth.
Image analysis of hippocampal neurons. […] 2D maximum intensity projection images were then generated and analyzed using a custom-build program in ImageJ. The program utilizes combinatorial thresholding to mask regions of the cell that contain high intensity PSD-95 puncta (the post-synaptic side of excitatory synapses in dendritic spines) and regions of the dendritic shaft that contain no fluorescence intensity of PSD-95. […] Spine growth was assessed by measuring the changes in mCherry cell fill fluorescence intensity within dendritic spine ROIs (F/F0).

Sequence of PDGFRβ(h) (P09619 33-1106): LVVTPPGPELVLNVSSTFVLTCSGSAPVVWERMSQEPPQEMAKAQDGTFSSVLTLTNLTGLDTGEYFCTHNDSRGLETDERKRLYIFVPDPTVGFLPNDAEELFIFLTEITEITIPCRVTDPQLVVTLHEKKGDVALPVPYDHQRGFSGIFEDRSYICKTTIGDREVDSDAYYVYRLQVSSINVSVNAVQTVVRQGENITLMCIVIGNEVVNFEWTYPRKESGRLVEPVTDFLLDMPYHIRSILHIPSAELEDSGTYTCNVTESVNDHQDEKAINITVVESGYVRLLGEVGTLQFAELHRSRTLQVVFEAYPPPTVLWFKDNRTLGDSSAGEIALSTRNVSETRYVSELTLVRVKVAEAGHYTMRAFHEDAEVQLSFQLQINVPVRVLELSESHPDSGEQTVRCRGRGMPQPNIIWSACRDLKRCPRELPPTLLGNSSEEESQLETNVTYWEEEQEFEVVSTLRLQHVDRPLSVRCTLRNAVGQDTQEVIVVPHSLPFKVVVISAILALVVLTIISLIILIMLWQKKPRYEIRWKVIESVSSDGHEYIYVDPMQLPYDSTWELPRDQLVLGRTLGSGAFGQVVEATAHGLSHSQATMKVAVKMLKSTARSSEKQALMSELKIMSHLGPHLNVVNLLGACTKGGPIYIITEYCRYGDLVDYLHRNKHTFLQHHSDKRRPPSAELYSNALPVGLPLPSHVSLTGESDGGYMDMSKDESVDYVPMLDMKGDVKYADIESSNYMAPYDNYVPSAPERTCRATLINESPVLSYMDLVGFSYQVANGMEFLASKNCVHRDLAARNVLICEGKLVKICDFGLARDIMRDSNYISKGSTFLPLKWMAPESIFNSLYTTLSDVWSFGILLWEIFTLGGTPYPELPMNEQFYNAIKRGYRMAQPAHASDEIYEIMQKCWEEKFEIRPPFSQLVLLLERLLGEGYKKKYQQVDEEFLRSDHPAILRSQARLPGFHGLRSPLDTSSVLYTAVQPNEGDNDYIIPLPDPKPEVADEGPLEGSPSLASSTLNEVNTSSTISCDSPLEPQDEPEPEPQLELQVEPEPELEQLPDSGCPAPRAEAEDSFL

## NCCNc1cccc(-c2ccnc3[nH]c4ccccc4c23)c1 [AS283]
PDGFRβ(h)
  residual kinase activity, PDGFRβ(h): 111 percentage of maximal activity
CDK2/cyclinE(h)
  residual kinase activity, CDK2/cyclinE(h): 41 percentage of maximal activity
GSK3α(h)
  residual kinase activity, GSK3α(h): 82 percentage of maximal activity
FAK(h)
  residual kinase activity, FAK(h): 68 percentage of maximal activity
JAK3(h)
  residual kinase activity, JAK3(h): 92 percentage of maximal activity
PKBγ(h)
  residual kinase activity, PKBγ(h): 42 percentage of maximal activity
GSK3β(h)
  residual kinase activity, GSK3β(h): 87 percentage of maximal activity
ROCK-II(h)
  residual kinase activity, ROCK-II(h): 77 percentage of maximal activity
JNK2α2(h)
  residual kinase activity, JNK2α2(h): 82 percentage of maximal activity
AMPKα1(h)
  residual kinase activity, AMPKα1(h): 70 percentage of maximal activity
CaMKI(h)
  residual kinase activity, CaMKI(h): 107 percentage of maximal activity
mTOR(h)
  residual kinase activity, mTOR(h): 115 percentage of maximal activity
cKit(h)
  residual kinase activity, cKit(h): 50 percentage of maximal activity
FGFR1(h)
  residual kinase activity, FGFR1(h): 58 percentage of maximal activity
CaMKIIγ(h)
  residual kinase activity, CaMKIIγ(h): 2 percentage of maximal activity
Arg(h)
  residual kinase activity, Arg(h): 96 percentage of maximal activity
PKCδ(h)
  residual kinase activity, PKCδ(h): 39 percentage of maximal activity
PKG1α(h)
  residual kinase activity, PKG1α(h): 48 percentage of maximal activity
KDR(h)
  residual kinase activity, KDR(h): 15 percentage of maximal activity
PKG1β(h)
  residual kinase activity, PKG1β(h): 38 percentage of maximal activity
PDK1(h)
  residual kinase activity, PDK1(h): 78 percentage of maximal activity
SGK(h)
  residual kinase activity, SGK(h): 86 percentage of maximal activity
CDK5/p35(h)
  residual kinase activity, CDK5/p35(h): 33 percentage of maximal activity
JAK2(h)
  residual kinase activity, JAK2(h): 121 percentage of maximal activity
MEK1(h)
  residual kinase activity, MEK1(h): 85 percentage of maximal activity
CaMKIIδ(h)
  residual kinase activity, CaMKIIδ(h): 2 percentage of maximal activity

## CC(C)(C)n1nc(Cc2cccc3ccccc23)c2c(N)ncnc21 [NM-PP1]
[1]
  CaMKII movement after photoactivation of paCaMKII F89G: enabled similar movement
